# Entries after “also recorded” stand apart in the source; their conditions may differ.
# System: P. omnivora
# Assay: in vitro fungal growth inhibition assay
# Type: cell-based, Phymatotrichopsis omnivora
structure (smiles),measurement,setting,value
"O=c1cc(-c2ccc(O)cc2)oc2cc(O)ccc12 [7,4-dihydroxyflavone]",fungal growth inhibition in in vitro assays,at 0.1 mM,inhibited fungal growth
same,inhibitory activity towards P. omnivora in in vitro assays,no concentration stated,very high inhibitory activity; also recorded: inhibitory to P. omnivora
